Measured values published in patent US20120324604A1, “PESTICIDAL MIXTURES CONTAINING ISOXAZOLINE DERIVATIVES AND A FUNGICIDE” (priority 2010, published 2012).
Where “and” joins values, the source holds several entries; their conditions need not be identical. Identical values can stand only once.

Experiments:
Type in all cases: cell-based
Rhizoctonia solani = Rhizoctonia solani (Foot Rot, Damping-Off) growth inhibition, microtiter plate, photometric; details: applied alone
Procedure: Rhizoctonia solani (Foot Rot, Damping-Off):
Mycelial fragments of the fungus from cryogenic storage were directly mixed into nutrient broth (potato dextrose broth). After placing a (DMSO) solution of the test compounds into a microtiter plate (96-well format) the nutrient broth containing the fungal spores was added.

Gaeumannomyces graminis = Gaeumannomyces graminis growth inhibition, microtiter plate, photometric
Procedure: Mycelial fragments of the fungus from cryogenic storage were directly mixed into nutrient broth (potato dextrose broth). After placing a (DMSO) solution of the test compounds into a microliter plate (96-well format) the nutrient broth containing the fungal spores was added.

[1] = tested on: Glomerella lagenarium (syn. Colletotrichum lagenarium); assay: Glomerella lagenarium (Anthracnose of Cucurbits) growth inhibition, microtiter plate, photometric; details: alone
Procedure: Glomerella lagenarium (syn. Colletotrichum lagenarium), Anthracnose of Cucurbits:
(§1) Conidia of the fungus from cryogenic storage were directly mixed into nutrient broth (potato dextrose broth). After placing a (DMSO) solution of the test compounds into a microtiter plate (96-well format) the nutrient broth containing the fungal spores was added.

Septoria tritici = Septoria tritici (Leaf Blotch) growth inhibition, microtiter plate, photometric; details: for AVERAGE DEAD IN %: alone; for AVERAGE DEAD IN % Difenoconazole: Difenoconazole alone
Procedure: Septoria tritici (Leaf Blotch):
as §1

[2] = tested on: Mycosphaerella arachidis (syn. Cercospora arachidicola); assay: Mycosphaerella arachidis (Brown Leaf Spot of Groundnut) growth inhibition, microtiter plate, photometric; details: alone
Procedure: Mycosphaerella arachidis (syn. Cercospora arachidicola), Brown Leaf Spot of Groundnut (Peanut):
as §1

Fusarium culmorum = Fusarium culmorum (Root Rot) growth inhibition, microtiter plate, photometric
Procedure: Fusarium culmorum (Root Rot):
as §1

Structure (SMILES): CC1COC(Cn2cncn2)(c2ccc(Oc3ccc(Cl)cc3)cc2Cl)O1 (stereo not drawn) [Difenoconazole]
- AVERAGE DEAD IN % (Rhizoctonia solani; 0.25 ppm AI): 20%
- AVERAGE DEAD IN % (Rhizoctonia solani; 0.5 ppm AI): 50% and 70%
- AVERAGE DEAD IN % (Rhizoctonia solani; 1 ppm AI): 50% and 100%
- AVERAGE DEAD IN % (Rhizoctonia solani; 2 ppm AI): 100%
- AVERAGE DEAD IN % (Gaeumannomyces graminis; single compound at 0.25 ppm AI): 0%
- AVERAGE DEAD IN % (Gaeumannomyces graminis; single compound at 0.5 ppm AI): 0%
- AVERAGE DEAD IN % (Gaeumannomyces graminis; single compound at 1 ppm AI): 20%
- AVERAGE DEAD IN % (Gaeumannomyces graminis; single compound at 2 ppm AI): 90%
- AVERAGE DEAD IN % ([1]; 0.5 ppm AI): 20%
- AVERAGE DEAD IN % ([1]; 1 ppm AI): 20%
- AVERAGE DEAD IN % (Septoria tritici; 0.03125 ppm AI): 50%
- AVERAGE DEAD IN % (Septoria tritici; 0.0625 ppm AI): 70%
- AVERAGE DEAD IN % (Septoria tritici; 0.125 ppm AI): 90%
- AVERAGE DEAD IN % (Septoria tritici; 0.25 ppm AI): 90%
- AVERAGE DEAD IN % (Septoria tritici; 0.5 ppm AI): 90%
- AVERAGE DEAD IN % (Septoria tritici; 1 ppm AI): 90%
- AVERAGE DEAD IN % (Septoria tritici; 2 ppm AI): 90%
- AVERAGE DEAD IN % Difenoconazole (Septoria tritici; 0.0078125 ppm AI): 0%
- AVERAGE DEAD IN % Difenoconazole (Septoria tritici; 0.015625 ppm AI): 0%
- AVERAGE DEAD IN % Difenoconazole (Septoria tritici; 0.0625 ppm AI): 50% and 70%
- AVERAGE DEAD IN % Difenoconazole (Septoria tritici; 0.125 ppm AI): 70% and 90%
- AVERAGE DEAD IN % Difenoconazole (Septoria tritici; 0.25 ppm AI): 70% and 90%
- AVERAGE DEAD IN % Difenoconazole (Septoria tritici; 0.5 ppm AI): 90%
- AVERAGE DEAD IN % Difenoconazole (Septoria tritici; 1 ppm AI): 90%
- AVERAGE DEAD IN % Difenoconazole (Septoria tritici; 2 ppm AI): 90%
- AVERAGE DEAD IN % ([2]; 0.00390625 ppm AI): 0%
- AVERAGE DEAD IN % ([2]; 0.0078125 ppm AI): 50%
- AVERAGE DEAD IN % ([2]; 0.00390625 PPM AI): 0%
- AVERAGE DEAD IN % ([2]; 0.015625 PPM AI): 50% and 90%
- AVERAGE DEAD IN % (Fusarium culmorum; alone, 0.25 PPM AI): 20%
- AVERAGE DEAD IN % (Fusarium culmorum; alone, 0.5 PPM AI): 20%
- AVERAGE DEAD IN % (Fusarium culmorum; alone, 1 PPM AI): 20%
- AVERAGE DEAD IN % (Fusarium culmorum; alone, 2 PPM AI): 90%
- AVERAGE DEAD IN % (Fusarium culmorum; single compound, 0.25 PPM AI, 48 hrs, 24° C.): 20%
- AVERAGE DEAD IN % (Fusarium culmorum; single compound, 0.5 PPM AI, 48 hrs, 24° C.): 20%
- AVERAGE DEAD IN % (Fusarium culmorum; single compound, 1 PPM AI, 48 hrs, 24° C.): 70%
